System: jejunal mucosal 5-HT in mice (C57 BL6)
Assay: Intestinal 5-HT depletion assay (Example B, single 150 mg/kg oral dose)
Assay type: in vivo, mouse
Details: one day after oral administration of a single 150 mg/kg dose, P-value class (ANOVA)
Method: The efficacy of the TPH1 inhibitors of the invention was assessed for the ability to decrease intestinal serotonin concentration in mice. Mice (C57 BL6) were administered a single 150 mg/kg dose of test article by oral gavage. Each animal was euthanized by exsanguination under isoflurane anesthesia. Jejunal intestinal mucosa was isolated and homogenized in 300 μL of a buffer containing 0.3M trichloroacetic acid, 0.1M sodium acetate, 10 mM EDTA, 20 mM sodium bisulfate and 50 mM ascorbic acid. Following centrifugation the 5-HT levels in the supernatants were measured by HPLC. The remaining mucosal pellet was solubilized overnight at 37° C. in a 0.1% sodium dodecyl sulfate buffer in 0.1N NaOH followed by determination of protein concentrations using a BCA protein assay (Pierce, Rockford, Ill. 5-HT levels were normalized to protein and data were expressed as mean percent reduction of mucosal 5-HT levels relative to vehicle control SEM (percent 5-HT reduction). All animal studies were carried out with protocols approved by the Institutional Animal Care and Use Committee.
P-values, indicating statistical significance of the data (ANOVA) are provided in the table: * refers to P<0.05, ** refers to P<0.01, *** refers to P<0.005, and refers to P<0.0005.

Row | SMILES | Efficacy (statistical significance of reduction of mucosal 5-HT concentrations relative to vehicle)
1 | Cc1ccc([C@@H](Oc2cc(N3CCC4(CC3)CN[C@H](C(=O)O)C4)nc(N)n2)C(F)(F)F)c(-n2ccc(C)n2)c1 [Example 10h, (S)-8-(2-amino-6-((R)-2,2,2-trifluoro-1-(4-methyl-2-(3-methyl-1H-pyrazol-1-yl)phenyl)ethoxy)pyrimidin-4-yl)-2,8-diazaspiro[4.5]decane-3-carboxylic acid] | *** (*** refers to P<0.005)
2 | Cc1ccn(-c2cc(Cl)ccc2[C@@H](Oc2cc(N3CCC4(CC3)CN[C@H](C(=O)O)C4)nc(C)n2)C(F)(F)F)n1 [Example 28, (S)-8-(6-((R)-1-(4-chloro-2-(3-methyl-H-pyrazol-1-yl)phenyl)-2,2,2-trifluoroethoxy)-2-methylpyrimidin-4-yl)-2,8-diazaspiro[4.5]decane-3-carboxylic acid] | * (* refers to P<0.05)
3 | Cc1ccn(-c2cc(-c3cccnc3)ccc2[C@@H](Oc2cc(N3CCC4(CC3)CN[C@H](C(=O)O)C4)nc(C)n2)C(F)(F)F)n1 [Example 29z, (S)-8-(2-methyl-6-((R)-2,2,2-trifluoro-1-(2-(3-methyl-1H-pyrazol-1-yl)-4-(pyridin-3-yl)phenyl)ethoxy)pyrimidin-4-yl)-2,8-diazaspiro[4.5]decane-3-carboxylic acid] | ** (** refers to P<0.01)
4 | Cc1ccn(-c2cc(Cl)ccc2[C@@H](Oc2cc(N3CCC4(CC3)CNC(C(=O)O)C4)nc(NC3CCCCC3)n2)C(F)(F)F)n1 (stereo partly drawn) [Example 31, 8-(6-((R)-1-(4-chloro-2-(3-methyl-H-pyrazol-1-yl)phenyl)-2,2,2-trifluoroethoxy)-2-(cyclohexylamino)pyrimidin-4-yl)-2,8-diazaspiro[4.5]decane-3-carboxylic acid] | * (* refers to P<0.05)
5 | Nc1nc(O[C@H](c2ccc(Cl)cc2-c2ccccc2)C(F)(F)F)cc(N2CCC3(CC2)CN[C@H](C(=O)O)C3)n1 [Example 34r, (S)-8-(2-amino-6-((R)-1-(5-chloro-[1,1′-biphenyl]-2-yl)-2,2,2-trifluoroethoxy)pyrimidin-4-yl)-2,8-diazaspiro[4.5]decane-3-carboxylic acid] | *** (*** refers to P<0.005)
6 | CCOC(=O)C1CC2(CCN(c3cc(O[C@H](c4ccc(Cl)cc4-n4ccc(C)n4)C(F)(F)F)nc(N)n3)CC2)CN1 (stereo partly drawn) [Example 63ay, ethyl 8-(2-amino-6-((R)-1-(4-chloro-2-(3-methyl-1H-pyrazol-1-yl)phenyl)-2,2,2-trifluoroethoxy)pyrimidin-4-yl)-2,8-diazaspiro[4.5]decane-3-carboxylate] | *** (*** refers to P<0.005)
7 | CCOC(=O)[C@@H]1CC2(CCN(c3cc(O[C@H](c4ccc(-c5cccc(OC)c5)cc4)C(F)(F)F)nc(N)n3)CC2)CN1 [Example 63ba, (S)-ethyl 8-(2-amino-6-((R)-2,2,2-trifluoro-1-(3′-methoxy-[1,1′-biphenyl]-4-yl)ethoxy)pyrimidin-4-yl)-2,8-diazaspiro[4.5]decane-3-carboxylate] | *** (*** refers to P<0.005)
8 | CCOC(=O)[C@@H]1CC2(CCN(c3cc(O[C@H](c4ccc(CC)cc4-n4ccc(C)n4)C(F)(F)F)nc(N)n3)CC2)CN1 [Example 63be, (S)-ethyl 8-(2-amino-6-((R)-1-(4-ethyl-2-(3-methyl-1H-pyrazol-1-yl)phenyl)-2,2,2-trifluoroethoxy)pyrimidin-4-yl)-2,8-diazaspiro[4.5]decane-3-carboxylate] | *** (*** refers to P<0.005)
9 | CCOC(=O)c1ccc(-n2ccc(C)n2)c([C@@H](Oc2cc(N3CCC4(CC3)CN[C@H](C(=O)OCC)C4)nc(N)n2)C(F)(F)F)c1 [Example 63bh, (S)-ethyl 8-(2-amino-6-((R)-1-(5-(ethoxycarbonyl)-2-(3-methyl-1H-pyrazol-1-yl)phenyl)-2,2,2-trifluoroethoxy)pyrimidin-4-yl)-2,8-diazaspiro[4.5]decane-3-carboxylate] | ** (** refers to P<0.01)
10 | CCOC(=O)c1ccc([C@@H](Oc2cc(N3CCC4(CC3)CN[C@H](C(=O)OCC)C4)nc(N)n2)C(F)(F)F)c(-n2ccc(C)n2)c1 [Example 63bi, (S)-ethyl 8-(2-amino-6-((R)-1-(4-(ethoxycarbonyl)-2-(3-methyl-1H-pyrazol-1-yl)phenyl)-2,2,2-trifluoroethoxy)pyrimidin-4-yl)-2,8-diazaspiro[4.5]decane-3-carboxylate] | ** (** refers to P<0.01)
11 | CCCCc1ccc(-n2ccc(C)n2)c([C@@H](Oc2cc(N3CCC4(CC3)CN[C@H](C(=O)OCC)C4)nc(N)n2)C(F)(F)F)c1 [Example 63bq, (S)-ethyl 8-(2-amino-6-((R)-1-(5-butyl-2-(3-methyl-1H-pyrazol-1-yl)phenyl)-2,2,2-trifluoroethoxy)pyrimidin-4-yl)-2,8-diazaspiro[4.5]decane-3-carboxylate] | **** (and refers to P<0.0005)
12 | CCOC(=O)[C@@H]1CC2(CCN(c3cc(O[C@H](c4ccc(-c5ccc6c(c5)CCNC6=O)cc4)C(F)(F)F)nc(N)n3)CC2)CN1 [Example 63bx, (S)-ethyl 8-(2-amino-6-((R)-2,2,2-trifluoro-1-(4-(1-oxo-1,2,3,4-tetrahydroisoquinolin-6-yl)phenyl)ethoxy)pyrimidin-4-yl)-2,8-diazaspiro[4.5]decane-3-carboxylate] | *** (*** refers to P<0.005)
13 | CCOC(=O)[C@@H]1CC2(CCN(c3cc(O[C@H](c4ccc(-c5ccc6cnccc6c5)cc4)C(F)(F)F)nc(N)n3)CC2)CN1 [Example 63by, (S)-ethyl 8-(2-amino-6-((R)-2,2,2-trifluoro-1-(4-(isoquinolin-6-yl)phenyl)ethoxy)pyrimidin-4-yl)-2,8-diazaspiro[4.5]decane-3-carboxylate] | *** (*** refers to P<0.005)
14 | CCOC(=O)CCc1ccc([C@@H](Oc2cc(N3CCC4(CC3)CN[C@H](C(=O)OCC)C4)nc(N)n2)C(F)(F)F)c(-n2ccc(C)n2)c1 [Example 63bz, (S)-ethyl 8-(2-amino-6-((R)-1-(4-(3-ethoxy-3-oxopropyl)-2-(3-methyl-1H-pyrazol-1-yl)phenyl)-2,2,2-trifluoroethoxy)pyrimidin-4-yl)-2,8-diazaspiro[4.5]decane-3-carboxylate] | ** (** refers to P<0.01)
15 | CCOC(=O)[C@@H]1CC2(CCN(c3cc(O[C@H](c4ccc(-c5ccc(CNC(C)=O)cc5)cc4-n4ccc(C)n4)C(F)(F)F)nc(N)n3)CC2)CN1 [Example 63cp, (S)-ethyl 8-(6-((R)-1-(4′-(acetamidomethyl)-3-(3-methyl-1H-pyrazol-1-yl)-[1,1′-biphenyl]-4-yl)-2,2,2-trifluoroethoxy)-2-aminopyrimidin-4-yl)-2,8-diazaspiro[4.5]decane-3-carboxylate] | *** (*** refers to P<0.005)

Source: patent US11759462B2, “Spirocyclic compounds as tryptophan hydroxylase inhibitors” (priority 2013, dated 2023)
